Reference: article PMC11191095, “QSAR Reveals Decreased Lipophilicity of Polar Residues Determines the Selectivity of Antimicrobial Peptide Activity” (ACS Omega, 2024)
Where a SMILES comes first, the peptide text is derived from it.

How the values were obtained:
C. auris TDG 1912 = experiment: microbe, parasite or virus in culture; assay type: cell-based, Candida auris
Outline: (§1)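 Peptides 128→2 μg/mL, 2-fold series; inoculum ~5 × 10^5 CFU/mL from overnight culture (OD600 0.01, mixed 1:1). MHB non-cation-adjusted for bacteria, RPMI 1640 + 2% glucose for fungi. 37 °C, 20 h, OD600. MIC50/MIC90 at 50%/90% inhibition; n ≥ 3.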

C. krusei NCPF 3876 = experiment: microbe, parasite or virus in culture; assay type: cell-based
Outline: as §1

[1] = test system: C. parapsilosis NCPF 3209; experiment: microbe, parasite or virus in culture; assay type: cell-based
Outline: as §1

C. tropicalis NCPF 8760 = experiment: microbe, parasite or virus in culture; assay type: cell-based
Outline: as §1

C. glabrata NCPF 8018 = experiment: microbe, parasite or virus in culture; assay type: cell-based
Outline: as §1

C. albicans NCPF 3281 = experiment: microbe, parasite or virus in culture; assay type: cell-based
Outline: as §1

[2] = RP-HPLC ElutionTime as indicator of hydrophobicity; assay type: physicochemical; details: indicator of overall hydrophobicity; semipreparative RP-HPLC, Waters SymmetryPrep C8, water/ACN gradient with 0.1% TFA, 8 mL/min, 25 °C, 254 nm
Protocol: Crude peptides, made up to 10 mg/mL in 0.1% TFA (v/v) in ddH2O, were subjected to preparative RP-HPLC purification on an Agilent 1100 system, with elution in gradient. A gradient program at a flow rate of 8 mL/min and column temperature of 25 °C was used to achieve elution with solvent A (0.1% trifluoroacetic acid (TFA) in water (v/v)) and solvent B (0.1% TFA in 100% acetonitrile (ACN) (v/v)). The elution program was as follows: (1) At 0–73 min, 100% solvent A to 0% solvent B; (2) at 73–77 min, 40% solvent A to 60% solvent B; (3) at 77–93 min, 10% solvent A to 90% solvent B; (4) at 93–105 min, 100% solvent A to 0% solvent B. Data collected were the retention time of the major fraction for each peptide in minutes as RP-HPLC ElutionTime (ElutionTime). Absorbance was detected at 254 nm, and fractions were collected manually. The fractions collected were spun in a speed-vac to remove ACN and the contents lyophilized. After freeze-drying for 24 h the peptides were dissolved in 10% (v/v) acetic acid before being lyophilized for a second time and then stored at −20 °C.
Molecular descriptors used in the QSAR analysis included: charge, sequence length, overall lipophilicity (L), lipophilicity contributed by the polar or nonpolar residues (LP and LN), summation of the side chain surface areas of the total peptide, polar or nonpolar residues (SCSA, SCSAP, and SCSAN), the molecular weight of the entire peptide, polar or nonpolar residues (Mw, MwP, and MwN), count of small lipophilic residues (CSL) or aromatic residues (CAR), the total number of hydrogen bond donor and acceptor centers (HBtot, HBdon, and HBacc), the total number of rotatable bonds (#RotBonds) and various amphipathicity descriptors (LP/L, LP/LN, L/LN, Q/L, Q/LN, SCSAP/SCSAN, MwP/MwN, Q/CSL, and Q/CAR) (Suppl. Table S1). Experimentally determined characteristics included ElutionTime as an indicator of overall peptide hydrophobicity and the CD structure of each peptide determined in POPG/POPE lipids representing Gram-negative membranes, POPG lipids for Gram-positive membranes, and SDS micelles for fungal membranes. AMPs with an α-helical structure were labeled 4, β-sheets were labeled 3, β-turns and mixed conformations were labeled 2, and disordered structures were labeled 1.

S. aureus (MRSA) 1199B = experiment: microbe, parasite or virus in culture; assay type: cell-based, Staphylococcus aureus; details: S. aureus (MRSA) 1199B (R); shown in µM
Outline: as §1

E. coli LEC001 = experiment: microbe, parasite or virus in culture; assay type: cell-based, Escherichia coli; details: E. coli LEC001 (R); shown in µM
Outline: as §1

E. coli NCTC 12923 = experiment: microbe, parasite or virus in culture; assay type: cell-based, Escherichia coli; details: E. coli NCTC 12923 (S); shown in µM
Outline: as §1

[3] = test system: S. aureus (MSSA) ATCC 9144; experiment: microbe, parasite or virus in culture; assay type: cell-based, Staphylococcus aureus; details: S. aureus (MSSA) ATCC 9144 (S); shown in µM
Outline: as §1

S. aureus (MRSA) USA300 = experiment: microbe, parasite or virus in culture; assay type: cell-based, Staphylococcus aureus; details: S. aureus (MRSA) USA300 (R); shown in µM
Outline: as §1

[4] = test system: S. aureus (MRSA) NCTC 13616; experiment: microbe, parasite or virus in culture; assay type: cell-based, Staphylococcus aureus; details: S. aureus (MRSA) NCTC 13616 (R); shown in µM
Outline: as §1

human erythrocytes = experiment: In vitro hemolytic activity; assay type: cell-based; details: human erythrocytes in PBS, 1 h, 37 °C, OD550; from dose response curves
Outline: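 Serial peptide dilutions in PBS mixed 1:1 with fresh erythrocytes, 1 h at 37 °C; supernatant OD550 measured after centrifugation. Hemolysis normalized to 0.1% Triton X-100 (full lysis) and PBS (none); HC10 and HC50 taken from dose–response curves.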

HaCat cell line = experiment: In vitro HaCat cytotoxicity (MTT); assay type: cell-based, human; details: 21 h exposure, OD570, relative to untreated control
Outline: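 HaCat keratinocytes were first screened with peptide at 256 μg/mL for 21 h at 37 °C, and a dose-response was run only when cytotoxicity reached p < 0.0001. Viability was read by MTT (3 h, OD570) relative to untreated control, and LC50 was taken from the dose-response curves.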

P. aeruginosa PAO1 = experiment: microbe, parasite or virus in culture; assay type: cell-based, Pseudomonas aeruginosa; details: P. aeruginosa PAO1 (S)
Outline: as §1

P. aeruginosa NCTC 13437 = experiment: microbe, parasite or virus in culture; assay type: cell-based, Pseudomonas aeruginosa; details: P. aeruginosa NCTC 13437 (R); shown in µM
Outline: as §1

K. pneumoniae M6 = experiment: microbe, parasite or virus in culture; assay type: cell-based, Klebsiella pneumoniae; details: K. pneumoniae M6 (S); shown in µM
Outline: as §1

K. pneumoniae NCTC 13368 = experiment: microbe, parasite or virus in culture; assay type: cell-based, Klebsiella pneumoniae; details: K. pneumoniae NCTC 13368 (R); shown in µM
Outline: as §1

A. baumannii AYE = experiment: microbe, parasite or virus in culture; assay type: cell-based, Acinetobacter baumannii; details: A. baumannii AYE (R); shown in µM
Outline: as §1

A. baumannii ATCC 17978 = experiment: microbe, parasite or virus in culture; assay type: cell-based, Acinetobacter baumannii; details: A. baumannii ATCC 17978 (S); shown in µM
Outline: as §1

[5] = C. auris TDG 1912, 50% growth inhibition, RPMI 1640 + 2% glucose, 37 °C, 20 h, OD600
[6] = C. krusei NCPF 3876, shown in µM
[7] = C. parapsilosis NCPF 3209, shown in µM
[8] = C. tropicalis NCPF 8760, shown in µM
[9] = C. glabrata NCPF 8018, shown in µM
[10] = C. albicans NCPF 3281, shown in µM

In the case of `CC(C)[C@H](NC(=O)CNC(=O)[C@H](CCCNC(=N)N)NC(=O)[C@@H](N)CCCNC(=N)N)C(=O)N[C@@H](CS)C(=O)N[C@@H](CCCNC(=N)N)C(=O)N[C@@H](CS)C(=O)N[C@H](C(=O)N[C@@H](CS)C(=O)N[C@@H](CCCNC(=N)N)C(=O)N[C@@H](CCCNC(=N)N)C(N)=O)C(C)C` [BTD11a] (H-RRGVCRCVCRR-NH2; N-terminus assumed), the “Modal MIC50” value (C. auris TDG 1912; [5]) is reported as 64 µg/mL, the “Modal MIC50” value (C. auris TDG 1912; TDG 1912, 20 h) is reported as 47 µM and the “Modal MIC90” value (C. auris TDG 1912; TDG 1912, 20 h) is reported as greater than 94 µM. The “Modal MIC50” value (C. krusei NCPF 3876; C. krusei NCPF 3876, 50% growth inhibition, RPMI 1640 + 2% glucose, 37 °C, 20 h) was 32 µg/mL, the “Modal MIC90” value (C. krusei NCPF 3876; C. krusei NCPF 3876, 90% growth inhibition, RPMI 1640 + 2% glucose, 37 °C, 20 h) was 32 µg/mL and the “Modal MIC50” value (C. krusei NCPF 3876; NCPF 3876, 20 h) was 23.5 µM. For the same compound, the “Modal MIC90” value (C. krusei NCPF 3876; NCPF 3876, 20 h) was 23.5 µM, the “Modal MIC50” value ([1]; C. parapsilosis NCPF 3209, 50% growth inhibition, RPMI 1640 + 2% glucose, 37 °C, 20 h) was 4 µg/mL and the “Modal MIC90” value ([1]; C. parapsilosis NCPF 3209, 90% growth inhibition, RPMI 1640 + 2% glucose, 37 °C, 20 h) was 16 µg/mL. The “Modal MIC50” value ([1]; NCPF 3209, 20 h) was 2.9 µM, the “Modal MIC90” value ([1]; NCPF 3209, 20 h) was 11.8 µM and the “Modal MIC50” value (C. tropicalis NCPF 8760; C. tropicalis NCPF 8760, 50% growth inhibition, RPMI 1640 + 2% glucose, 37 °C, 20 h) was 1 µg/mL. For the same compound, the “Modal MIC90” value (C. tropicalis NCPF 8760; C. tropicalis NCPF 8760, 90% growth inhibition, RPMI 1640 + 2% glucose, 37 °C, 20 h) was 2 µg/mL, the “Modal MIC50” value (C. tropicalis NCPF 8760; NCPF 8760, 20 h) was 0.7 µM and the “Modal MIC90” value (C. tropicalis NCPF 8760; NCPF 8760, 20 h) was 1.5 µM. For the same compound, the “Modal MIC50” value (C. glabrata NCPF 8018; C. glabrata NCPF 8018, 50% growth inhibition, RPMI 1640 + 2% glucose, 37 °C, 20 h) was 16 µg/mL, the “Modal MIC90” value (C. glabrata NCPF 8018; C. glabrata NCPF 8018, 90% growth inhibition, RPMI 1640 + 2% glucose, 37 °C, 20 h) was 32 µg/mL and the “Modal MIC50” value (C. glabrata NCPF 8018; NCPF 8018, 20 h) was 11.8 µM. The “Modal MIC90” value (C. glabrata NCPF 8018; NCPF 8018, 20 h) was 23.5 µM, the “Modal MIC50” value (C. albicans NCPF 3281; C. albicans NCPF 3281, 50% growth inhibition, RPMI 1640 + 2% glucose, 37 °C, 20 h) was 32 µg/mL and the “Modal MIC90” value (C. albicans NCPF 3281; C. albicans NCPF 3281, 90% growth inhibition, RPMI 1640 + 2% glucose, 37 °C, 20 h) was 64 µg/mL. For the same compound, the “Modal MIC50” value (C. albicans NCPF 3281; NCPF 3281, 20 h) was 23.5 µM, the “Modal MIC90” value (C. albicans NCPF 3281; NCPF 3281, 20 h) was 47 µM and the “ElutionTime (RP-HPLC retention time of major fraction)” value [2] was 16 min. For the same compound, the “Modal MIC” value (S. aureus (MRSA) 1199B) was greater than 94 µM.
In the case of `CC[C@H](C)[C@H](N)C(=O)N[C@@H](CC(C)C)C(=O)N[C@@H](CCCCN)C(=O)N[C@@H](CCCCN)C(=O)N[C@H](C(=O)N[C@@H](Cc1c[nH]c2ccccc12)C(=O)N[C@@H](CCC(=O)O)C(=O)NCC(=O)N[C@H](C(=O)N[C@@H](CCCCN)C(=O)N[C@@H](CO)C(=O)N[C@@H](CC(C)C)C(=O)N[C@@H](Cc1ccccc1)C(N)=O)[C@@H](C)CC)[C@@H](C)CC` [K3-IsCTa] (H-ILKKIWEGIKSLF-NH2), the “Modal MIC50” value (C. auris TDG 1912; [5]) is reported as greater than 128 µg/mL, the “Modal MIC90” value (C. auris TDG 1912; C. auris TDG 1912, 90% growth inhibition, RPMI 1640 + 2% glucose, 37 °C, 20 h, OD600) is reported as greater than 128 µg/mL and the “Modal MIC50” value (C. auris TDG 1912; C. auris TDG 1912, shown in µM) is reported as greater than 79.5 µM. For the same compound, the “Modal MIC90” value (C. auris TDG 1912; C. auris TDG 1912, shown in µM) was greater than 79.5 µM, the “Modal MIC50” value (C. krusei NCPF 3876; [6]) was 9.9 µM and the “Modal MIC90” value (C. krusei NCPF 3876; [6]) was 19.9 µM. The “Modal MIC50” value [1, 7] was 39.8 µM, the “Modal MIC90” value [1, 7] was 39.8 µM and the “Modal MIC50” value (C. tropicalis NCPF 8760; [8]) was 2.5 µM. For the same compound, the “Modal MIC90” value (C. tropicalis NCPF 8760; [8]) was 5 µM, the “Modal MIC50” value (C. glabrata NCPF 8018; [9]) was 39.8 µM and the “Modal MIC90” value (C. glabrata NCPF 8018; [9]) was 39.8 µM. The “Modal MIC50” value (C. albicans NCPF 3281; [10]) was 19.9 µM, the “Modal MIC90” value (C. albicans NCPF 3281; [10]) was 39.8 µM and the “Modal MIC” value (E. coli LEC001) was 5 µM. For the same compound, the “Modal MIC” value (E. coli NCTC 12923) was 5 µM, the “Modal MIC” value [3] was 5 µM and the “Modal MIC” value (S. aureus (MRSA) 1199B) was 5 µM. The “Modal MIC” value (S. aureus (MRSA) USA300) was 9.9 µM, the “Modal MIC” value [4] was 5 µM and the “HC10 (concentration causing 10% hemolysis)” value (human erythrocytes) was 84 µg/mL. The “% HaCat cell death at initial screening (256μg/mL) ± SD” value (HaCat cell line) was 104.1 ± 11.9%, the “Modal MIC” value (P. aeruginosa PAO1; MHB, 37 °C, 20 h, OD600, min. three biological repeats) was greater than 128 µg/mL and the “Modal MIC” value (P. aeruginosa PAO1; shown in µM) was greater than 79.5 µM. For the same compound, the “Modal MIC” value (P. aeruginosa NCTC 13437) was 39.8 µM, the “Modal MIC” value (K. pneumoniae M6) was 9.9 µM and the “Modal MIC” value (K. pneumoniae NCTC 13368) was 9.9 µM. For the same compound, the “Modal MIC” value (A. baumannii AYE) was 5 µM and the “Modal MIC” value (A. baumannii ATCC 17978) was 2.5 µM.
